The source of these data is PubChem BioAssay AID743394 (Broad Institute, 2014).

Activity calls are given as the source filed them.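 Rule for the calls: active = 40% activation versus positive control reached by fitted dose-response curve at or below highest valid tested dose; inconclusive = poor fit quality, or flat fit with activation between 30% and 70%; inactive = the rest.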

The nature of the first test: inactive X chromosome reactivation in XiGFP fibroblasts, dose response, imaging, 68-5-11 mouse fibroblasts, GFP, cherry-pick (AID 743394).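 Note: sensitizer 5-aza-dC present in the wells at 0.5 mM final.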 Conditions: 68-5-11 mouse fibroblast XiGFP reporter, % GFP-positive imaging, 3 d; at 19.5 µM (top of the series).
`Cc1cc(/C=C2/C(=O)NC(=O)N(Cc3ccco3)C2=O)c(C)n1-c1ccccc1O`: the activation was -0.049% (inactive).
The same measure, in the same setting: with `O=C(c1cccc2ccccc12)C1CCCN(Cc2ccon2)C1` (stereo not drawn) the figure was 0.107% (inactive).
The same measure, in the same setting: with `O=c1[nH]c(=O)n(CCC2=CCCCC2)c(O)c1/C=N/Nc1ccccc1` the figure was -0.002% (inactive).
The same measure, in the same setting: with `O=[N+]([O-])c1ccc(O)c([N+](=O)[O-])c1` the figure was -0.014% (inactive); with `COP(=S)(OC)Oc1ccc(Sc2ccc(OP(=S)(OC)OC)cc2)cc1`, 0.028% (inactive).

Staying with this test, now noted: 68-5-11 mouse fibroblast XiGFP reporter, % GFP-positive imaging, 3 d; at 19.5 µM (top of the series); cells co-treated with 5-aza-dC sensitizer; scaled: neutral wells 0, ellipticine wells 100.
Regarding `O=C(NC1=NN(c2ccccc2)CC1)Nc1ccccc1F`, the activation was -0.003% (inactive).
The same measure, in the same setting: under `O=C(O)/C=C/C(=O)Nc1ccc(-n2nccc2C(F)(F)F)cc1` stands 1.34% (inactive); under `CC[C@]12c3[nH]c4cc(CCC(=O)N(C)C)ccc4c3CCN1C(=O)[C@@H](CC(=O)NCCC1=CCCCC1)C[C@@H]2C(=O)N1CCN(C(=O)c2ccco2)CC1`, 0.011% (inactive); under `N/C(=N\c1nc(CSc2nc3ccccc3s2)cc(=O)[nH]1)Nc1ccc(F)cc1`, 8.8% (inactive).
Same read-out and setting: under `Cc1cc2c(NC(=O)Nc3ccc(C(C)(C)C)cc3)cccc2nn1` stands 0.068% (inactive).
The same measure, in the same setting: under `O=CNc1ccc2c(c1)Cc1cc([N+](=O)[O-])ccc1-2` stands 0.191% (inactive); under `CCc1ccccc1OCC(=O)Nc1ccc(N2CCCC2)cc1C`, 0.109% (inactive).
Consider `COc1ccc(-c2noc(-c3cccs3)n2)cc1OC`, for which the activation was 0.151% (inactive).
Same read-out and setting: with `CC(C)Oc1ccc(/C(O)=C2/C(=O)C(=O)N(CCN(C)C)C2c2cccs2)cc1` (stereo not drawn) the figure was 0.063% (inactive); with `Nc1cc2c3c(cccc3c1)C(=O)N(CCN1CCCC1)C2=O`, -0.037% (inactive).
Still for that read-out and setting: under `N/C(=N\OC(=O)C12CC3CC(CC(C3)C1)C2)c1ccncc1` stands 0.008% (inactive); under `C[C@H](CO)N1C[C@H](C)[C@H](CN(C)S(=O)(=O)c2ccccc2)Oc2ccc(NS(=O)(=O)c3ccc(Cl)cc3)cc2C1=O`, 0.163% (inactive).
`COc1ccc(S(=O)(=O)N(C)C[C@H]2Oc3ccc(NS(=O)(=O)c4ccc(F)cc4)cc3CC(=O)N([C@@H](C)CO)C[C@@H]2C)cc1`: the activation is 0.034% (inactive).
On the same count and under the same terms, with `Nc1ccc(-c2nc3ccccc3[nH]2)cc1` the figure was -0.039% (inactive); with `Cc1ccc(Cl)cc1NC(=O)CCC(=O)O`, -0.002% (inactive).
The same measure, in the same setting: under `CCN1CCN(c2cc(C)c3cc(NC(=O)c4cccs4)ccc3n2)CC1` stands -0.032% (inactive); under `COc1ccc(Cc2c(O)nc(SCC(=O)NC34CC5CC(CC(C5)C3)C4)[nH]c2=O)cc1`, 0.41% (inactive).
Still for that read-out and setting: under `Cc1ccc(C)c(CSC2=NN3CCCC(=O)N=C3S2)c1` stands -0.017% (inactive); under `CCOC(=O)N1CCN(Cc2cc(Cl)c3cccnc3c2O)CC1`, -0.05% (inactive); under `CCn1nc(C)cc1-c1nnc(Sc2ncc([N+](=O)[O-])s2)n1C`, -0.032% (inactive).
For the compound `CC1=NN(c2ccc(C)c(C)c2)C(=O)/C1=C\C=C\c1ccc([N+](=O)[O-])o1`, the activation was -0.033% (inactive).
Take `COC(=O)c1cc(NS(=O)(=O)c2ccc(NC(C)=O)cc2)ccc1Cl`: the activation is -0.044% (inactive).
Still for that read-out and setting: with `COc1ccccc1CN1CC[C@H]2[C@H](CO)Nc3ccc(C#Cc4ccccc4)cc3[C@H]21` the figure was 0% (inactive); with `Cc1cccc2sc(N(CCCN(C)C)C(=O)CN3C(=O)c4ccccc4C3=O)nc12`, -0.047% (inactive).
The same measure, in the same setting: with `COc1ccc2c3c(n(C)c2c1)[C@H](CO)N(C(=O)CN1CCOCC1)CC31CCN(C(=O)Nc2cccc(F)c2)CC1` the figure was -0.035% (inactive); with `COc1cc(CNc2nc3ccccc3n2C)cc(OC)c1OC`, 0.013% (inactive).
On the same count and under the same terms, under `O=C1N(c2ccccc2)C[C@@H]2C[C@@H](c3cc4ccccc4o3)N3CCC[C@@]123` stands -0.008% (inactive); under `Clc1ccc(-c2nc(-c3ccncc3)no2)c(Cl)c1`, -0.034% (inactive).
As for `CC(C)c1cc(C(=O)N/N=C/c2cccnc2)cs1`, the activation is 0.54% (inactive).
Same read-out and setting: under `CCc1nc(C)cn1S(=O)(=O)c1ccc([N+](=O)[O-])cc1` stands -0.053% (inactive); under `C=CC[C@@H](CC(=O)N(CCO)Cc1ccccc1)C(=O)NCCOC(=O)[C@@H](CC=C)Cc1ccc(F)cc1`, -0.009% (inactive).
Same read-out and setting: under `COCCN(C(=O)c1ccc2c(c1)C(=O)N(c1ccccc1Cl)C2=O)c1c(N)n(CC(C)C)c(=O)[nH]c1=O` stands 0.738% (inactive); under `CC(=O)N[C@@H](CC(=O)O)C(=O)O`, -0.053% (inactive); under `NNc1nc2c(-c3ccc(F)cc3)nnn2c2ccccc12`, 0.731% (inactive).
For `COc1ccccc1NC(=O)N[C@H]1C=C[C@@H](CC(=O)N[C@@H](C)c2ccccc2)O[C@@H]1CO`, the activation was -0.011% (inactive).
On the same count and under the same terms, under `COc1ccc(CCCc2nc3ccccc3[nH]2)cc1` stands -0.001% (inactive); under `CCOC(=O)/C(C#N)=C/C=C1/C=CC=CN1C`, 0.071% (inactive); under `CN(C)/C=C1\C=C2C(=O)c3ccccc3N2C1=O`, 4.14% (inactive).
On the same count and under the same terms, under `O=c1[nH]c(=O)n([C@H]2C[C@H](O)[C@@H](CO)O2)cc1C(F)(F)F` stands -0.032% (inactive); under `Nc1nc(C2CCOCC2)cs1`, -0.032% (inactive).
The same measure, in the same setting: with `Cc1cccc(CS(=O)(=O)Cc2ccc(C(=O)NCc3cccs3)o2)c1` the figure was 0% (inactive).
Take `CC(=O)Nc1ccc(N2Cc3ccccc3C2)cc1`: the activation is -0.053% (inactive).
On the same count and under the same terms, with `O=C(N/N=C/c1ccc([N+](=O)[O-])o1)c1cc2ccccc2o1` the figure was 4.43% (inactive).
The same measure, in the same setting: with `COc1ccccc1N1CCN(C(=O)CN2C(=O)c3cccc4cccc(c34)C2=O)CC1` the figure was 0.077% (inactive); with `CCc1ccc(C(=O)NNc2ccc(S(N)(=O)=O)cc2)cc1`, -0.007% (inactive).
Still for that read-out and setting: with `C[C@@H]1CN(C)C(=O)Cc2cc(N(C)C)ccc2O[C@@H]1CN(C)S(C)(=O)=O` the figure was 0.115% (inactive); with `CCOc1ccc(NC(=S)NC(C)c2cccs2)cc1` (stereo not drawn), 0.358% (inactive).
Regarding `CCC(=O)N1CC(=O)N2[C@@H](CO)[C@@H](c3ccc(-c4ccccc4F)cc3)[C@@H]2C1`, the activation was 0% (inactive).
Same read-out and setting: with `O=c1c2ccccc2nnn1Cc1ccc2ccccc2c1` the figure was -0.047% (inactive).
Same read-out and setting: with `CS(=O)(=O)c1ccc(S(=O)CC(=O)OCc2ccccc2)c([N+](=O)[O-])c1` (stereo not drawn) the figure was -0.127% (inactive); with `O=c1[nH]nc(SCCS(=O)(=O)c2ccc(F)cc2)n1-c1ccccc1C(F)(F)F`, -0.024% (inactive).
On the same count and under the same terms, with `CCOC(=O)CSc1nnc(CCCCCN2C(=O)c3cccc4cccc(c34)C2=O)o1` the figure was 0.013% (inactive); with `Cc1cccc(-c2ccc([C@@H]3[C@@H](CO)N4CCCCN(S(=O)(=O)c5ccccc5F)C[C@H]34)cc2)c1`, 0% (inactive); with `COc1ccc(/C=C2\CCc3ccccc3C2=O)cc1CN1CCOCC1`, 0.231% (inactive).
Consider `COc1ccc(CN(C)C[C@H]2OCCCC[C@@H](C)Oc3ccc(NC(=O)Nc4ccc(F)cc4)cc3C(=O)N([C@@H](C)CO)C[C@H]2C)cc1`, for which the activation is 3.19% (inactive).
Same read-out and setting: with `O=C(OCc1cccc(F)c1)c1ccc2c(=O)n3c(nc2c1)CCC3` the figure was 1.02% (inactive).
On the same count and under the same terms, with `C=C(C)c1cccc(C(C)(C)NC(=O)Nc2nnc(C(C)C)s2)c1` the figure was -0.035% (inactive); with `CC(=O)c1ccc(NC(=O)COC(=O)CCc2ccc(S(=O)(=O)N3CCOCC3)cc2)cc1`, 0.332% (inactive).
Same read-out and setting: under `C(CCCN1CCCCC1)CCN1CCCCC1` stands 0.047% (inactive); under `CCCCNc1nc2c(-c3ccccc3)nnn2c2ccccc12`, 0.101% (inactive).
As to `CCC(C(=O)Nc1cc(OC)c(NC(=O)c2ccccc2)cc1OC)c1ccccc1` (stereo not drawn), the activation was -0.037% (inactive).
Same read-out and setting: with `CCOC(=O)C1(Cc2ccccc2C)CCCN(C(=O)CSC)C1` (stereo not drawn) the figure was -0.053% (inactive); with `CCC(C)c1nc2ccsc2c(N2CCOC2=O)c1-c1ccccc1` (stereo not drawn), -0.032% (inactive); with `CC1CC(C)CN(C(=O)C(C)N2CCN(S(=O)(=O)c3ccccc3F)CC2)C1` (stereo not drawn), 0.412% (inactive).
On the same count and under the same terms, under `C=CCNC(=O)N[C@@H](Cc1ccccc1)C(=O)OC` stands -0.065% (inactive).
In the case of `CCOc1cccc(/C=N/NC(=S)Nc2cc(S(=O)(=O)N3CCOCC3)ccc2N2CCOCC2)c1O`, the activation is 6.09% (inactive).
On the same count and under the same terms, with `COc1ccc2c3c(n(C)c2c1)[C@H](CO)N(Cc1ccccc1F)CC31CCN(CC2CC2)CC1` the figure was 0.046% (inactive); with `COc1ccc(CNC(=O)c2ccc(-c3cnn(C)c3)c3ccoc23)cc1OC`, -0.037% (inactive); with `CCN(CC(=O)Nc1sc2c(c1C#N)CCCC2)CC(=O)NC1CCS(=O)(=O)C1` (stereo not drawn), -0.032% (inactive).
As for `CC(=O)c1c(COC(=O)c2ccccc2Cl)nc2ccccc2[n+]1[O-]`, the activation is 0.188% (inactive).
Still for that read-out and setting: under `CC(C)c1ccc(CN2CCN(C(=O)CSc3nnnn3C3CC3)CC2)cc1` stands 0.2% (inactive); under `O=C(CSc1nc2ccccc2[nH]1)N/N=C/C=C/c1ccccc1[N+](=O)[O-]`, 0.165% (inactive).

The same test, now with this note: 68-5-11 mouse fibroblast XiGFP reporter, % GFP-positive imaging, 3 d; at 21 µM (top of the series); cells co-treated with 5-aza-dC sensitizer; scaled: neutral wells 0, ellipticine wells 100.
As to `CO[C@H](CN(C)C(=O)Nc1ccc(C(F)(F)F)cc1)[C@@H](C)CN(Cc1ccccc1Cl)[C@@H](C)CO`, the activation is 0% (inactive).
